The source of these data is patent publication US12245591B2, “Templated antimicrobial microgels and methods of making and using the same” (THE BOARD OF TRUSTEES OF THE UNIVERSITY OF ARKANSAS, priority 2019, dated 2025).

One series concerns S. aureus (ATCC 25923). The series can be described thus: Minimal inhibitory concentration (MIC), broth microdilution, S. aureus. The class given is cell-based. The conditions noted are these: for MIC: Staphylococcus aureus. The protocol:
(§1) The minimal inhibitory concentration (MIC) and minimal bactericidal concentration (MBC) by broth microdilution assays in 96-well plates to determine antimicrobial activity of selected agents against Gram-positive and Gram-negative bacteria
(§2) Antimicrobial materials: In a typical experiment, the synthesized polymers were prepared for antimicrobial assays as described for the kinetic assays in Example 4(A), except as indicated in Tables 7-10 and 12.
(§3) Mueller Hinton broth (MHB): A sterile broth is prepared with 4.50 g Mueller Hinton base (Hardy Diagnostics) in 200 mL deionized water. The broth is cooled to room temperature after being autoclaved and stored at 4° C. until use.
(§4) Propagation of bacterial cells: Typically, 500 μL aliquots of S. aureus (ATCC® 25923™) or E. coli (BL21 DE3) cells are used to inoculate 5 mL of Mueller Hinton broth. The inoculum is shaken at 37° C. and 240 rpm for 6 h. Then, 500 μL aliquots are transferred to individual vessels, flash-frozen in liquid nitrogen, and stored as pre-starter cultures at −20° C. until use.
(§5) Growth of bacterial cells: A 500 μL pre-starter culture is used to inoculate 5 mL of Mueller Hinton broth at 37° C. After 5 h of shaking at 240 rpm, a 500 μL of the inoculum is diluted to 20 mL with sterile MHB, followed by three successive 1:10 dilutions of 1000 μL of the resulting solutions into 10 mL MHB. Subsequently, 50 μL of the most dilute cell suspension is spread on a Mueller-Hinton agar plate, and incubated at 37° C. After 24 h, selected colonies are re-suspended in 4 mL of Mueller-Hinton broth and diluted until their OD625 value matched that of a 0.5 McFarland standard at 37° C. to account for a cell concentration of 1×10^8 CFU/mL. Typically, a 50 μL aliquot of the cell suspension is diluted into 10 mL of Mueller-Hinton broth to obtain a stock solution of S. aureus cells at a concentration of 5×10^5 CFU/mL. Typically, two separate inoculums are prepared immediately prior to use.
(§6) Preparation of broth microdilution assays and data recording: Following standard procedures for conducting broth microdilution assays, 100 μL aliquots of Mueller-Hinton broth are added to each well. Subsequently, a 100 μL aliquot of the sterile antimicrobial agent solution is added in the first column of the plate and then diluted in a serial manner by subsequent transfers of 100 μL aliquots over the first 10 columns. […] Typically, the absorbance in each well is then monitored at 595 nm and 37° C. over a 16 h period in 2 h intervals.
(§7) Data analysis: The obtained absorbance data are plotted against time to determine the steady state point of cell growth. The change of absorbance at this time for wells with and without antimicrobial agent is then plotted against the concentration of the antimicrobial agent. […]

The next series deals with E. coli (BL21 DE3). The series can be described thus: Minimal inhibitory concentration (MIC), broth microdilution, E. coli. The conditions noted are these: for MIC: Escherichia coli, read-out: MIC E. coli. The class given is cell-based. The protocol:
as §1, §2, §3, §4, §5, §6, §7
(In general: Dilution methods test growth across graded concentrations, often in twofold steps.)

Series [1] is described as follows: Stability of galactonoamidine against hydrolysis under buffer and temperature conditions (HPLC, NMR). It is filed as physicochemical. As to the method: The instrumentation, reagents, and materials for this study were recently described. [Sharma, B. et al. Biomacromolecules 2018, 19, 1164-1174; Sharma, B. et al. […]. 2018, 8, 7710-7718] The computational analysis was performed with PQSmol as reported. [Sharma Biomacromolecules 2018; […]. et al. Dalton Trans. 2016, 45, 15203-15210; Becke, A. D. J. Chem. Phys. 1993, 98, 5648-5652; Lee, C. et al. Phys. Rev. B: Condens. Matter Mater. Phys. 1988, 37, 785-789; PQSmol, Version 4.1; Parallel Quantum Solutions: […]. et al. J. Chem. […] [[…]. et al. Bioorg. Med. Chem. 2016, 24, 3371-3377] Glyconoamidines are prone to nucleophilic attack at the anomeric C atom and subsequent hydrolysis in alkaline solution. Various glyconoamidines have been previously synthesized. [Bleriot, Y. et al. Bioorg. Med. Chem. Lett. 1995, 5, 2655-60; Bleriot, Y. et al. Tetrahedron Lett. 1994, 35, 1867-70; Heck, M.-P. et al. J. Am. Chem. Soc. 2004, 126, 1971-1979; […]. Res. 1996, 29, 340-347] We evaluated the hydrolysis of galactonoamidine 1 under various buffer and temperature conditions to ensure its stability under polymerization conditions. […] The stability of 1 was also observed at 0 and 10° C. over a 3 h time period in 5 mM CAPS buffer solution at pH 10.50. Buffer solutions with similar molarity at lower pH values behave likewise (FIG. 13).

Series [2] can be described thus: Coordination to binuclear complex Cu2bpdpo, isothermal titration calorimetry. It is filed as binding. The conditions noted are these: coordination to the metal complex; pH 10.50, 10° C.
From the text: The coordination of galactonoamidine 1 to binuclear complexes was already evaluated in part and included Cu2bpdpo (5), a nonpolymerizable analogue of 3 (FIG. 15).
In another series the test system is B21 DE3 E. coli cells. Put plainly: Growth of E. coli cells in petridish assays with Müller-Hinton/agar media. It is filed as cell-based. The conditions noted are these: 37° C., 12 h. The protocol:
Sterile Müller-Hinton/Agar (MH) media. 4.54 g Müller-Hinton media and 5.07 g agar were dissolved in 200 mL deionized water. The media were autoclaved and stored at 4° C. until use.
E. coli cell culture. A 100 μL aliquot of B21 DE3 E. coli cells, purchased from New England Biolabs, were added to 1 mL of sterile Luria-Bertani broth; the culture was incubated for 2 hours at 37° C. Then, a 100 μL aliquot of this culture was diluted by serial dilution 200,000-fold with sterile LB (Miller's) media yielding 10 mL of a stock solution of the cell culture.
Stock solution of low molecular weight complex Cu2bpdpo (catalyst 1). 5.28 mg of Cu2bpdpo were dissolved in 5 mL of 50 mM HEPES buffer at pH 7.00; a 1000 μl aliquot of the resulting solution was further diluted into 10 mL yielding a 160.3 μM stock solution of Cu2bpdpo.
Stock solution of Hen Egg-white lysozyme (catalyst 2). 11.53 mg of lyophilized lysozyme purchased from AMRESCO were dissolved in 5 mL of 50 mM HEPES buffer at pH 7.00 and used as a 161.1 μM stock solution.
Stock solutions of microgels (catalysts 3-5). All microgel stock solutions were treated as described above, but only diluted 1:5 during activation and then sterilized prior to use for these experiments. The stock solution for ^Cu2LPgal (40%) is 112.3 μM, for ^Cu2LPgal (60%) 145.6 μM and for ^Cu2LP1 (60%) 153.6 μM.
Plate preparation. […]

Series [3] is classed as biochemical. The note with it: for Km / kcat: substrate β-9. The protocol: 2.8.4. Catalytic Glycoside Hydrolysis. […]
Substrate Stock Solution. […] As the glycoside precipitates in this concentration from aqueous solutions at ambient temperature, the resulting solution was kept above 50° C. until use.
Catalyst Stock Solutions. The microgel dispersions were used as described above. […]
Kinetic Assay. In a typical experiment, 20 μL of an activated microgel dispersion were added to aliquots of the glycoside stock solution (0-100 μL) and corresponding amounts of buffer solution, keeping the nominal volume of the resulting solutions at 200 μL. […] The product formation was read in 20 min intervals after orbital shaking of the solutions over 5 s each. All experiments were performed in duplicate or triplicate.
Data Analysis. The collected fluorescence intensity was plotted over time, and a linear fit applied to the data collected between 140 and 480 min. The calculated rates of the reaction were then corrected by the corresponding apparent extinction coefficient and catalyst amount, averaged from two independent experiments, and plotted over the molar substrate concentration. Nonlinear regression of the resulting hyperbolic data yielded the rate constant kcat and the apparent substrate affinity KM. The rate constant of the uncatalyzed reaction knon was determined by applying a linear fit to the corrected rates of the collected data obtained in absence of catalyst. Data obtained in the presence of metal-ion free control polymer ^LPgal and from control polymer ^Cu2LPEG were treated likewise to estimate their catalytic efficiency.
The turbidity of the aqueous microgel dispersions under consideration here increases visibly to the naked eye with the crosslinking content from 5 to 80 mol % EGDMA. As a consequence, the apparent extinction coefficient (εapp) was determined for each microgel under the respective assay conditions prior to analysis of related spectroscopic data. […] (FIG. 9). [Chen, R. F Anal. Lett. 1968, 1(7), 423-428] […] [Striegler 2010] and used here to establish catalytic activity of the newly synthesized crosslinked microgels. The assay was developed in a 96-well plate format to allow fast catalyst screening under various reaction conditions, including lower pH values in future efforts.
Likewise, a linear correlation between the concentration of the low molecular weight complex Cu2bpdpo (2) and the product formation of the glycoside hydrolysis was observed when the catalyst was used in concentrations up to 12 μM under assay conditions. With a fast screening assay on hand, the hydrolysis of glycoside 6 was evaluated with two different microgel catalysts at 60% crosslinking content: a polymer […] prepared in the presence of galactose and its metal-free, nonactivated analogue ^LPgal. Control experiments were conducted using a microgel ^Cu2LPEG that has the same crosslinking content as those polymers above, but is prepared in the presence of ethylene glycol instead of galactose. Additionally, hydrolysis of 6 was followed in the presence of low molecular weight complex Cu2bpdpo (2) and in the absence of catalyst in the buffer solution itself. The resulting hyperbolic data for the glycoside hydrolyses were analyzed by applying the Michaelis-Menten model to obtain the rate of the reaction (kcat), the substrate affinity (KM), and the rate of the uncatalyzed reaction (knon) in aqueous buffer solution. The catalytic proficiency (kcat/(KM×knon), catalytic efficiency (kcat/KM), and acceleration of the reaction over the uncatalyzed background reaction (kcat/knon) were then calculated therefrom as described (Table 1, FIG. 11).
Activated microgel catalysts were prepared as described. [Sharma Biomacromolecules 2018] Typical stock solutions were as follows: Cu2bpdpo […] 2 mM, β-galactosidase as described [Sharma ACS Catal. 2018], 4-methylumbelliferyl α-D-galactopyranoside (α-9) 8-9 mM, and 4-methylumbelliferyl […] 3-4 mM. […]

[4] abbreviates: ATCC25923, broth microdilution, 37° C., 2.5×10^5 CFU/mL, read-out: MIC S. aureus.
Where [5] appears, read: broth microdilution, 37° C., 2.5×10^5 CFU/mL.
Setting [6] is: 5 mM aqueous HEPES buffer, pH 7.00, 37° C.
[7] abbreviates: 50 mM aqueous CAPS buffer, pH 10.50, 37° C.

By pKa is commonly meant the pH at which an ionisable group is half protonated. Low values mean a group that gives up its proton readily, high ones a group that holds its proton tightly. A word on the MIC: it is the least concentration at which growth counts as inhibited. As usually defined, the Km is the substrate concentration at which the rate is half of its maximum. A word on the kcat: it is the number of substrate molecules converted per active site and unit of time at saturation.

Values after ≈ are worked out from the molar mass of the structure shown. Like-named read-outs stand apart in the source and are kept apart here.

From the text for physchem: As the dissociation constant of CEA in water is to the best of our knowledge not reported, we used the structural similarity between CEA and propionic acid to predict the pKa value of CEA as 4.9.42 We then projected the pKa value of a linear CEA-polymer as 5.6, and estimated the pKa value of a crosslinked microgel with 20 mol % of CEA as 10.1 following the method by Fisher and Kunin as described.43 In short, the apparent pKa values of crosslinked microgels were estimated from the pKa(m=1) value of a linear polymer of the monomeric acid as eq 2 pKa,app=pKa(m=1)(2−m) (eq 2) where m is the mol fraction of the monomeric acid. The dissociation constant of the linear polymer is estimated graphically by extrapolation.

The compound `C=CC(=O)OCCC(=O)O` [CEA monomer, carboxyethyl acrylate] gave a pKa in the series “physchem” of 4.9.
Regarding `O=C(N[C@H](CO)[C@H](O)c1ccc([N+](=O)[O-])cc1)C(Cl)Cl` [Chloramphenicol], the results for the MIC with S. aureus (ATCC 25923) (setting [4]) and in the series with E. coli (BL21 DE3) (setting [5]) were 6.11 ± 0.02 µg/mL (≈ 18.9 µM) and 1.29 ± 0.04 µg/mL (≈ 3.99 µM), respectively.
Taken in the same sequence, the figures for `CCCCCCCCCCCCOS(=O)(=O)[O-].[Na+]` [SDS, sodium dodecyl sulfate] were 122 ± 1 µg/mL and 325 ± 11 µg/mL.
`CN[C@H](CC(C)C)C(=O)N[C@H]1C(=O)N[C@@H](CC(N)=O)C(=O)N[C@H]2C(=O)N[C@H]3C(=O)N[C@H](C(=O)N[C@H](C(=O)O)c4cc(O)cc(O)c4-c4cc3ccc4O)[C@H](O)c3ccc(c(Cl)c3)Oc3cc2cc(c3O[C@@H]2O[C@H](CO)[C@@H](O)[C@H](O)[C@H]2O[C@H]2C[C@](C)(N)[C@H](O)[C@H](C)O2)Oc2ccc(cc2Cl)[C@H]1O` [Vancomycin]: the MIC with S. aureus (ATCC 25923) (ATCC25923, read-out: MIC S. aureus) is 2.35 ± 0.14 µg/mL (≈ 1.62 µM); in the series with E. coli (BL21 DE3), 12.5 ± 0.2 µg/mL (≈ 8.63 µM).
As for `Cc1ccc(CNC2=NC(CO)C(O)C(O)C2O)cc1` (stereo not drawn) [galactonoamidine 1], the stability against hydrolysis entry was “instant hydrolysis” in series [1] (50 mM CAPS buffer, pH 10.50, 72° C.); “slowed the hydrolysis” in series [1] (buffer strength lowered to 5 mM, pH 10.50, 72° C.); “stable” in series [1] (pure deuterium oxide, 72° C., 3 h).
Turning to `O=C[C@H](O)[C@@H](O)[C@@H](O)[C@H](O)CO` [galactose], the “pKa, gal” value in series [2] came to 2.70.
For the compound Benzalkonium chloride, the “MIC S. aureus” value in the series with S. aureus (ATCC 25923) (setting [5]) was 4.32 ± 0.01 µg/mL. In addition, the “MIC E. coli” value in the series on E. coli (BL21 DE3) (setting [5]) amounted to 117 ± 1 µg/mL.
On to “lysozyme: Hen Egg-white lysozyme purchased from AMRESCO”, for which, in the series with B21 DE3 E. coli cells, the “inhibition of cell growth of E. coli on Müller-Hinton agar plates” value is given as “inhibition of cell growth to a much smaller extend”.
On to “β-galactosidase: β-galactosidase (bovine liver)”, for which the “stabilization of enzyme-catalyzed hydrolysis relative to microgel ^Cu2LP1” value in series [3] (pH 7) is reported as 3.5×106 fold. The “catalytic proficiency relative to low molecular weight complex Cu2bpdpo” value in series [3] (substrate 6 / β-9, pH 10.50, CAPS, 37° C.) is “about 3250 fold”. Also, in series [3] (setting [6]), the Km came to 110 ± 220 µM and the kcat turned out to be 4.6 ± 0.1 min⁻¹. In series [3] (setting [7]), the Km was 540 ± 60 µM and the kcat is reported as 2.95 ± 0.09 10^−3 min^−1. Moreover, the “catalytic proficiency higher than that of amidine-templated microgel ^Cu2LP1” value in series [3] (β-9, alkaline solution, pH 10.50) is “about 57 fold”.
